Literature values, collected in US20030194372A1, “Radioimaging probes and the use thereof” (priority 2000, published 2003).

System: atheroma
Conditions: literature reports

Structure (SMILES): CCC(Cc1c(I)cc(I)c(N)c1I)C(=O)O[C@H]1CC[C@@]2(C)C(=CC[C@H]3[C@@H]4CC[C@H]([C@H](C)CCCC(C)C)[C@@]4(C)CC[C@@H]32)C1 (stereo partly shown) [CI, cholesteryl iopanoate]
- Accumulation in atheroma / atherosclerotic lesions: accumulated preferentially in atheroma relative to normal arterial tissue
